{
  "source": "patent US10709668B2",
  "about": "“Sprinkle formulations of acamprosate” (priority 2015, dated 2020)",
  "origin": "cited, not measured here",
  "key": {"[1]": {"settings": "humans"}, "[2]": {"settings": "subjects with autism and fragile x syndrome (WO 2010093859)"}},
  "data": [
    {"smiles": "CC(=O)NCCCS(=O)(=O)O", "note": "[acamprosate, 3-(Acetylamino)propylsulfonic acid]", "values": [
      {"measurement": "Oral bioavailability", "setting": "[1]", "value": "about 11%"},
      {"measurement": "Improvement in primary outcomes (CGI-I, CGI-S)", "setting": "[2]", "value": "marked improvements"}
    ]}
  ]
}
